# Measurements reported in US20110052700A1, “GASTRIC RETENTIVE PHARMACEUTICAL COMPOSITIONS FOR IMMEDIATE AND EXTENDED RELEASE OF LEVOSULPIRIDE” (DEPOMED, INC., priority 2009, published 2011).
# How the values were obtained:
# [1] = Stress stability study, open dishes at 50° C or 80° C, 75% RH, 3 days, HPLC impurity analysis; format: physicochemical
# Method: In the present work, levosulpiride was subjected to stress and compatibility studies using methods published in the European Pharmacopoeia, Supplement 2001, 1572 Assay. Both levosulpiride powder and granules comprising 95 wt % levosulpiride and 5 wt % povidone (PVP) prepared as described in Example 1 were incubated in open dishes in a stability chamber/oven at 50° C. or 80° C., 75% relative humidity (RH) for 3 days. The substances were then analyzed by HPLC (high performance liquid chromatography). The mobile phase (MP) was composed of 10% acetonitrile (ACN), 10% methanol (MeOH) and an 80% solution containing 6.8 g/l of potassium dihydrogen phosphate and 1 g/l of sodium octanesulphonate, pH 3.3. The column was a 0.25 m×4.6 mm, 5 μm Zorbax RX C8 (Agilent, Inc.), flow was set at 1.5 ml/min with a wavelength of 240 nm.
# [2] = Excipient compatibility study, HDPE bottles, 40° C, 75% RH, HPLC impurity analysis; format: physicochemical
# Method: Studies were done to determine compatibility of the levosulpiride with the various excipients used in the formulations described herein. Samples, as described in Table 12 below, were packaged into 60 cc high-density polyethylene (HDPE) bottles with an induction seal, then stored at 40° C., 75% relative humidity (RH). Samples may be taken at various time points to analyze for the presence of impurities.
# Various samples comprised of the levosulpiride with excipients as described in Table 11 below were packaged in 60 cc HDPE bottles with induction seals, then stored at 40° C., 75% RH. Samples were analyzed at 1 and 2 months using HPLC according to the method described in Example 6.
# [3] = 1 vs. 2 month (one value given)
structure (smiles),measurement,setting,value
CCN1CCC[C@H]1CNC(=O)c1cc(S(N)(=O)=O)ccc1OC [Levosulpiride],Impurities under the stressed condition,"[1]; 50° C. or 80° C., 75% RH, 3 days",did not increase
same,Impurity B RPA (%),"[1]; 50° C./75% RH, Time = 3 days",<0.05%
same,Levosulpiride peak RPA (%),"[1]; 50° C./75% RH, Time = 3 days",100%
same,Unknown Impurity 1 RPA (%),"[1]; 50° C./75% RH, Time = 3 days",<0.05%
same,Unknown Impurity 2 RPA (%),"[1]; 50° C./75% RH, Time = 3 days",0.20%
same,Impurity B RPA (%),"[1]; 80° C./75% RH, Time = 3 days",<0.05%
same,Levosulpiride peak RPA (%),"[1]; 80° C./75% RH, Time = 3 days",100%
same,Unknown Impurity 1 RPA (%),"[1]; 80° C./75% RH, Time = 3 days",<0.05%
same,Unknown Impurity 2 RPA (%),"[1]; 80° C./75% RH, Time = 3 days",0.22%
same,Impurity B RPA (%),[1]; Time = 0,<0.05%
same,Levosulpiride peak RPA (%),[1]; Time = 0,100%
same,Unknown Impurity 1 RPA (%),[1]; Time = 0,<0.05%
same,Unknown Impurity 2 RPA (%),[1]; Time = 0,0.17%
same,Unknown Impurity 2 RPA (%),[2]; 1 month,0.18%
same,Impurity B RPA (%),[2]; [3],<0.05%
same,Levosulpiride peak RPA (%),[2]; [3],100%
same,Unknown Impurity 1 RPA (%),[2]; [3],<0.05%
same,Unknown Impurity 2 RPA (%),[2]; 2 month,0.19%
